Experimental data as given in ChEMBL document CHEMBL1122107, “Structure-antitumor activity relationships of 9-anilinoacridines using pattern recognition” (1982).
Several values for one entry are separate records, joined by “and”; a condition that tells them apart may be missing. Equal values may be shown once.

System: L1210
Test: Tumor cell selectivity determined as maximal percent increase in life span (ILSmax) at LD10 dosage level in L1210 cells
Assay type: functional, Mus musculus

SMILES	ILSmax
COc1cc(NS(C)(=O)=O)ccc1Nc1c2ccc(C)cc2nc2c(OC)cccc12	72%
COc1ccc(Nc2c3ccccc3nc3ccccc23)cc1	25%
CCCC(=O)N(c1ccc(Nc2c3ccc([N+](=O)[O-])cc3nc3c(C)cccc23)cc1)S(C)(=O)=O	85%
Cc1ccc2c(Nc3ccc(NS(C)(=O)=O)cc3)c3ccccc3nc2c1	85%
CC(=O)NCCS(=O)(=O)Nc1ccc(Nc2c3ccc(I)cc3nc3ccc(N)cc23)cc1	105%
CN(c1ccc(Nc2c3ccccc3nc3ccccc23)cc1)S(C)(=O)=O	65%
CS(=O)(=O)Nc1ccc(Nc2c3ccccc3nc3cc(O)ccc23)cc1	72%
COc1ccc2c(Nc3ccc(NS(C)(=O)=O)cc3)c3ccc(N)cc3nc2c1	105%
COc1ccc2nc3cc(NC(C)=O)ccc3c(Nc3ccc(NS(C)(=O)=O)cc3)c2c1	25%
COc1ccc2[nH]c3ccccc3c(=Nc3ccc(NS(C)(=O)=O)cc3OC)c2c1	35%
Cc1cc(NS(C)(=O)=O)ccc1Nc1c2ccc([N+](=O)[O-])cc2nc2c(C)c(C)ccc12	60%
O=S(=O)(Nc1ccc(Nc2c3ccccc3nc3ccccc23)cc1)c1ccccc1	75%
Cc1ccc2c(Nc3ccc(NS(C)(=O)=O)cc3)c3ccc([N+](=O)[O-])cc3nc2c1	170%
Cc1cc(NS(C)(=O)=O)ccc1Nc1c2ccccc2nc2c(C(N)=O)cccc12	68%
COc1cc(NS(C)(=O)=O)ccc1Nc1c2ccccc2nc2cc(I)ccc12	74%
COc1cc(NS(C)(=O)=O)ccc1Nc1c2cccc(C)c2nc2c(C)c(C)ccc12	120%
CN(c1ccccc1Nc1c2ccccc2nc2ccccc12)S(C)(=O)=O	25%
COc1ccc(Nc2c3ccccc3nc3ccccc23)c(NS(C)(=O)=O)c1	50%
COc1ccc(Nc2c3ccccc3nc3cc([N+](=O)[O-])ccc23)cc1	30%
CCCCNC(=O)c1cccc2c(Nc3ccc(NS(C)(=O)=O)cc3OC)c3ccccc3nc12	95%
NCCCS(=O)(=O)c1ccc(Nc2c3ccccc3nc3cc([N+](=O)[O-])ccc23)cc1	95%
NCCc1ccc(Nc2c3ccccc3nc3ccccc23)cc1	25%
NCCCCCS(=O)(=O)Nc1ccc(Nc2c3ccccc3nc3cc([N+](=O)[O-])ccc23)cc1	80%
NCCCCc1ccc(Nc2c3ccccc3nc3cc([N+](=O)[O-])ccc23)cc1	25%
CCOc1cccc2c(Nc3ccc(NS(C)(=O)=O)cc3)c3ccccc3nc12	85%

SMILES	ILSmax
CN(c1ccc(N=c2c3ccccc3[nH]c3cc(N)ccc23)cc1)S(C)(=O)=O	100%
CS(=O)(=O)c1ccc(S(=O)(=O)Nc2ccc(Nc3c4ccccc4nc4ccccc34)cc2)cc1	128%
CS(=O)(=O)Nc1ccc(Nc2c3ccccc3nc3cc(NC(=O)c4ccccc4)ccc23)cc1	25%
NS(=O)(=O)c1ccccc1Nc1c2ccccc2nc2ccccc12	25%
CN1CCN(c2ccc(Nc3c4ccccc4nc4cc([N+](=O)[O-])ccc34)cc2)CC1	25%
O=C(O)CCc1ccc(Nc2c3ccccc3nc3ccccc23)cc1	162%
Cc1cccc2c(Nc3ccc(NS(C)(=O)=O)cc3)c3ccc([N+](=O)[O-])cc3nc12	120% and 130%
COc1cc(NS(C)(=O)=O)ccc1Nc1c2ccccc2nc2c1ccc1ncccc12	83%
NCCCCCCS(=O)(=O)Nc1ccc(Nc2c3ccccc3nc3ccccc23)cc1	25%
CNc1ccc2c(Nc3ccc(NS(C)(=O)=O)cc3)c3cccc(C)c3nc2c1	170%
COc1cccc2c(Nc3ccc(NS(C)(=O)=O)cc3)c3ccc(I)cc3nc12	80%
Cc1cc(N)ccc1N=c1c2ccccc2[nH]c2ccccc12	76%
COc1cc(NS(C)(=O)=O)ccc1Nc1c2ccccc2nc2c(OCCO)cccc12	105%
NCCS(=O)(=O)Nc1ccc(Nc2c3ccccc3nc3ccccc23)cc1	25%
NCC(=O)NCCS(=O)(=O)Nc1ccc(Nc2c3ccccc3nc3cc([N+](=O)[O-])ccc23)cc1	170%
NCCCCCS(=O)(=O)Nc1ccc(Nc2c3ccccc3nc3ccccc23)cc1	25%
CCCCS(=O)(=O)Nc1ccc(Nc2c3ccccc3nc3cc([N+](=O)[O-])ccc23)cc1	110%
Cc1ccc2c(Nc3ccc(NS(C)(=O)=O)cc3)c3ccc(N)cc3nc2c1C	110%
CCCNC(=O)c1ccc(Nc2c3ccccc3nc3ccccc23)cc1	25%
CCOc1ccccc1Nc1c2ccccc2nc2ccccc12	25%
CC(C)CC(=O)Nc1ccc(Nc2c3ccccc3nc3ccccc23)cc1	105%
CS(=O)(=O)Nc1ccc(Nc2c3ccccc3nc3cc(Cl)c(N)cc23)cc1	140%
O=C(O)c1ccc(S(=O)(=O)Nc2ccc(Nc3c4ccccc4nc4ccccc34)cc2)cc1	135%
CCS(=O)(=O)Nc1ccc(Nc2c3ccccc3nc3cc(Cl)ccc23)c(OC)c1	95%
CC(Oc1ccc(Nc2c3ccccc3nc3ccccc23)cc1)C(=O)O (centres undefined)	25%

SMILES	ILSmax
Cc1ccc(Nc2c3ccccc3nc3ccccc23)cc1	90%
CCCCCCS(=O)(=O)Nc1ccc(Nc2c3ccccc3nc3cc(S(C)(=O)=O)ccc23)c(OC)c1	25%
CCNc1ccc(Nc2c3ccccc3nc3ccccc23)cc1	52%
COc1cc(NS(C)(=O)=O)ccc1Nc1c2ccccc2nc2c(Br)cccc12	100%
C(=C/c1ccc(Nc2c3ccccc3nc3ccccc23)cc1)/c1ccccc1	25%
NCCc1ccc(Nc2c3ccccc3nc3cc([N+](=O)[O-])ccc23)cc1	25%
COC(=O)N(c1ccc(Nc2c3ccccc3nc3cc(NC(C)=O)ccc23)cc1)S(C)(=O)=O	125%
CNc1ccc2c(Nc3ccc(NS(C)(=O)=O)cc3OC)c3ccccc3nc2c1	83%
O=C(O)/C=C\c1ccccc1Nc1c2ccccc2nc2ccccc12	25%
O=C(Nc1ccc(N=c2c3ccccc3[nH]c3ccccc23)cc1)Nc1ccc(C(=O)O)cc1	85%
Cc1cccc2c(Nc3ccc(NS(C)(=O)=O)cc3)c3cc(N)c(Br)cc3nc12	120%
CCCCCS(=O)(=O)Nc1ccc(Nc2c3ccccc3nc3ncccc23)c(OC)c1	76%
COc1cc(NS(C)(=O)=O)ccc1Nc1c2ccc(C)cc2nc2cc([N+](=O)[O-])ccc12	92%
O=C(O)CCCCCCCc1ccc(Nc2c3ccccc3nc3ccccc23)cc1	75%
O=C(O)c1ccc(Nc2c3ccccc3nc3c(OCC(O)CO)cccc23)cc1 (centres undefined)	170%
NC(=O)N/N=C/c1ccc(Nc2c3ccccc3nc3ccccc23)cc1	72%
CC(=O)Nc1ccc2c(Nc3ccc(NS(C)(=O)=O)cc3)c3ccc(Cl)cc3nc2c1	60%
CCCCCCS(=O)(=O)Nc1ccc(Nc2c3ccccc3nc3cc(NC(C)=O)ccc23)cc1	42%
CC(=O)Nc1ccc2c(Nc3ccc(N(C(=O)C(C)C)S(C)(=O)=O)cc3)c3ccccc3nc2c1	140%
CNc1ccc2c(Nc3ccc(OCCCC(=O)O)cc3)c3ccccc3nc2c1	25%
CS(=O)(=O)Nc1ccc(Nc2c3ccccc3nc3c(C(N)=O)cccc23)cc1	50%
COc1cc(NS(C)(=O)=O)ccc1N=c1c2ccccc2[nH]c2ccc(C(N)=O)cc12	25%
CCCCOc1cccc2c(Nc3ccc(NS(=O)(=O)CCC)cc3OC)c3ccccc3nc12	80%
COc1cc(NS(C)(=O)=O)ccc1Nc1c2ccc(I)cc2nc2c(OC)cccc12	100%
CCS(=O)(=O)Nc1ccc(Nc2c3ccccc3nc3cc(NC(C)=O)ccc23)cc1	115%

SMILES	ILSmax
CCS(=O)(=O)Nc1ccc(Nc2c3ccccc3nc3c(C)cccc23)c(OC)c1	76%
CCC(CC)C(=O)Nc1ccc(Nc2c3ccccc3nc3ccccc23)cc1	90%
N=C(N)NCCCS(=O)(=O)Nc1ccc(Nc2c3ccccc3nc3cc([N+](=O)[O-])ccc23)cc1	200%
CCc1ccc2c(Nc3ccc(CC(=O)O)cc3)c3ccccc3nc2c1	200%
NC(=O)CCCCc1ccc(Nc2c3ccccc3nc3ccccc23)cc1	82%
COc1ccc2nc3cc(Cl)ccc3c(Nc3ccc(NS(C)(=O)=O)cc3OC)c2c1	25%
COc1cc(Nc2c3ccccc3nc3c([N+](=O)[O-])cccc23)ccc1NS(C)(=O)=O	25%
Cc1cc(NS(C)(=O)=O)ccc1Nc1c2ccccc2nc2cc([N+](=O)[O-])ccc12	70%
N=C(N)NCCCCS(=O)(=O)Nc1ccc(Nc2c3ccccc3nc3cc([N+](=O)[O-])ccc23)cc1	110%
c1ccc(Nc2c3ccccc3nc3ccccc23)cc1	25%
CCC(=O)N(c1ccc(Nc2c3ccc([N+](=O)[O-])cc3nc3c(C)cccc23)c(OC)c1)S(C)(=O)=O	72%
CS(=O)(=O)Nc1ccc(Nc2c3ccccc3nc3c(N)cccc23)cc1	100%
COc1cc(NS(C)(=O)=O)ccc1Nc1c2ccccc2nc2cc([N+](=O)[O-])ccc12	76%
Oc1cccc(Nc2c3ccccc3nc3ccccc23)c1	25%
Cc1c([N+](=O)[O-])ccc2c(Nc3ccc(NS(C)(=O)=O)cc3)c3ccccc3nc12	70%
COc1cc(NS(C)(=O)=O)ccc1Nc1c2cccc(C)c2nc2c(C)c(N)ccc12	80%
CN(C)c1ccc(NC(=O)Nc2ccc(Nc3c4ccccc4nc4ccccc34)cc2)cc1	170%
COc1ccc2c(Nc3ccc(NS(C)(=O)=O)cc3OC)c3ccc(Cl)cc3nc2c1	50%
Cc1cccc2c(Nc3ccc(NS(=O)(=O)c4ccc(N)cc4)cc3)c3ccccc3nc12	55%
Nc1ccc(C(=O)Nc2ccc(N=c3c4ccccc4[nH]c4ccc(N)cc34)cc2)cc1	76%
CCCC(=O)N(c1ccc(Nc2c3ccccc3nc3cc(NC(C)=O)ccc23)cc1)S(C)(=O)=O	95%
CCCCCCS(=O)(=O)Nc1ccc(Nc2c3ccccc3nc3c(C(N)=O)cccc23)c(OC)c1	87%
CCCCNc1ccc(Nc2c3ccccc3nc3ccccc23)cc1	25%
NCCC(=O)NCCS(=O)(=O)Nc1ccc(Nc2c3ccccc3nc3ccccc23)cc1	25%
